Results: patent US9044487B2, “Hematopoietic neoplasm chemotherapy” (Eli Lilly and Company, priority 2009, dated 2015)
Read-outs that look alike come from different tables or passages of the source. Blank lines part the entries; values can stand above or below the compound they belong to.

What was measured:
[1] = test system: MV4;11 leukemia xenografts; test: Antitumor efficacy in MV4;11 leukemia xenografts; format: in vivo, female CD-1 nu/nu strain mice; conditions: vehicle control 233 ± 23.2
Protocol: Cultured cells (ATCC) are implanted subcutaneously in the rear flank of female CD-1 nu/nu strain mice which have been acclimated for one week in the animal facility after receipt from the vendor. […] The tumors are measured 2 times per week by electronic calipers to plot growth curves. Animals are also monitored for fluctuations in body weight and survival.

K562 [2] = test: Caspase 3 activity (Apo-ONE Homogeneous Caspase-3/7 Assay); format: cell-based, human; conditions: relative to untreated controls
From the text: (§1) Apoptosis or programmed cell death is characterized by a set of biochemical reactions, one of which is the induction of caspases. Activated caspases are proteases that participate in a cascade of cleavage events that disable key enzymes responsible for cell homeostasis and repair. Caspases 3 and 7 play key effector roles in apoptosis and can be detected and measured by a fluorescent biochemical assay. The increase of Caspase-3/7 activity in cells is directly correlated to apoptotic activity. (D. W. Nicholson, et al., Nature, 376, 37-43 (1995)) The Promega Apo-ONE Homogeneous Caspase-3/7 Assay Kit is used (Catalog #G7791). The assay buffer consists of 30 mM HEPES (N-(2-hydroxyethyl)piperazine-N′-(2-ethanesulfonic acid) pH 7.4, 150 mM NaCl, 50 mM KCl, 10 mM MgCl2, 0.4 mM EGTA (ethylene glycol tetraacetic acid), 0.5% Nonidet P40 (octylphenolpoly(ethyleneglycol ether)), 0.1% CHAPS (3-[(3-Cholamidopropyl)dimethylammonio]-1-propanesulfonate hydrate and 10% sucrose, which lyses/permeabilizes cultured cells and a caspase 3/7 substrate, Z-DEVD (Z-Asp(OMe)-Glu(OMe)-Val-Asp(OMe)), coupled to a profluorescent rhodamine 110. When the buffer-substrate mixture is added to a test sample, the cleavage and subsequent removal of the DEVD peptides by caspase 3/7 activity results in intense fluorescence of the rhodamine 110 leaving group, which is detected by excitation at 490 nm. The amount of fluorescent product is proportional to the amount of caspase 3/7 cleavage activity in the sample.
(§2) To measure the apoptotic effect of test compounds, tumor cells are plated at 1×10^4 cells per well in 96 well plates and incubated overnight at 37° C., with 5% CO2. Tumor cells are treated with test compound at desired concentrations in triplicate, including untreated/negative control wells. The assay plates are re-incubated for 48 hrs. At the end of the incubation period, a mixture of the assay buffer and substrate is added to each sample well. The fluorescence in each well is measured at an excitation wavelength of 480+/−20 nm and an emission wavelength of 530+/−25 nm. The % increase of caspase activity in treated cells is calculated relative to untreated controls.
(§3) MV4;11 is a human acute myeloid leukemia line characterized by the presence of a fusion transcript comprised of the MLL and AF4 genes and by the presence of an internal tandem duplication in the juxtamembrane region of the FLT-3 gene. RS4;11 is a human acute lymphoid leukemia cell line characterized by the presence of a fusion transcript comprised of the MLL and AF4 genes. REH is a human acute lymphoid leukemia (non-T; non-B) cell line characterized by the presence of a fusion transcript comprised of the TEL and AML1 genes. Kasumi 1 is a human acute myeloid leukemia line characterized by the presence of a fusion transcript comprised of the AML1 and ETO genes. K562 is a human chronic myelogenous leukemia cell line characterized by the presence of a fusion transcript comprised of the Bcr and Abl genes. HEL 92.1.7 is a human erythroleukemia cell line characterized by the presence of a V617F mutation in the JAK2 gene. Jurkatt is a human acute T-cell leukemia cell line. Each of the cell lines are obtained from the American Type Culture Collection (ATCC). In the following tables the term “Compound 1” or “Cmpd 1” means 7-(2,5-dihydro-4-imidazo[1,2-a]pyridine-3-yl-2,5-dioxo-1H-pyrrol-3-yl)-9-fluoro-1,2,3,4-tetrahydro-2-(1-piperidinyl-carbonyl)-pyrrolo[3,2,1-jk][1,4]benzodiazepine. The GSK-3 inhibitor [(3-(2,4-dichlorophenyl)-4-(1-methyl-1H-indol-3-yl)-1H-pyrrole-2,5-dione (SB216763), Sigma-Aldrich is used as a positive comparator control in some experiments. The compound GSK-3 Inhibitor IX, (2′Z,3′E)-6-bromoindirubin-3′-oxime (“GSK3-IX”) Calbiochem, is used as a positive control in some experiments. Both SB216763 and GSK3-IX are mentioned in the Wang et al., Nature, 455, 1205-1210 (2008) paper as evidencing positive results. […]

REH [3] = test: as above; format: cell-based, human; conditions: relative to untreated controls
From the text: as §1, §2, §3

HEL 92.1.7 [4] = test: as above; format: cell-based, human; conditions: relative to untreated controls
From the text: as §1, §2, §3

MV4;11 [5] = test: as above; format: cell-based, human; conditions: relative to untreated controls
From the text: as §1, §2, §3

Jurkat [6] = test: as above; format: cell-based, human; conditions: relative to untreated controls
From the text: as §1, §2, §3

Kasumi 1 = test: as above; format: cell-based, human; conditions: relative to untreated controls
From the text: as §1, §2, §3

RS4;11 [7] = test: as above; format: cell-based, human; conditions: relative to untreated controls
From the text: as §1, §2, §3

K562 [8] = test: Reduction in cell viability (CellTiter-Glo Luminescent Cell Viability Assay); format: cell-based, human; conditions: 48 hrs, read-out: Reduction in cell viability after treatment - EC50 (mean of triplicates)
Protocol: (§4) Cell viability is determined by the CellTiter-Glo® Luminescent Cell Viability Assay (Promega, Catalog #G7570) which is a method of estimating viable cell number based on quantitation of ATP in metabolically active cells. After cells are lysed, the mono-oxygenation of the substrate luciferin is catalyzed by the enzyme luciferase in the presence of Mg2+, ATP and molecular oxygen, resulting in the generation of a luminescent signal that is proportional to the number of viable cells in the assay wells.
(§5) To measure the viability of cells after treatment with compounds, tumor cells are plated at 2×10^4 per well in 96 well plates and incubated overnight at 37° C., with 5% CO2. Tumor cells are treated with test compound at desired concentrations in triplicate, including untreated/negative control cells. The assay plates are re-incubated for 48 hrs. At the end of the incubation period, a mixture of lysis assay buffer and substrate is added to each sample well. The luminescence in each well is measured using a microtiter plate luminometer.
(§6) MV4;11 is a human acute myeloid leukemia line characterized by the presence of a fusion transcript comprised of the MLL and AF4 genes and by the presence of an internal tandem duplication in the juxtamembrane region of the FLT-3 gene. RS4;11 is a human acute lymphoid leukemia cell line characterized by the presence of a fusion transcript comprised of the MLL and AF4 genes. REH is a human acute lymphoid leukemia (non-T; non-B) cell line characterized by the presence of a fusion transcript comprised of the TEL and AML1 genes. Kasumi 1 is a human acute myeloid leukemia line characterized by the presence of a fusion transcript comprised of the AML1 and ETO genes. K562 is a human chronic myelogenous leukemia cell line characterized by the presence of a fusion transcript comprised of the Bcr and Abl genes. […] Jurkatt is a human acute T-cell leukemia cell line. Each of the cell lines are obtained from the American Type Culture Collection (ATCC).

REH [9] = test: as above; format: cell-based, human; conditions: 48 hrs, read-out: Reduction in cell viability after treatment - EC50 (mean of triplicates)
Protocol: as §4, §5, §6

HEL 92.1.7 [10] = test: as above; format: cell-based, human; conditions: 48 hrs, read-out: Reduction in cell viability after treatment - EC50 (mean of triplicates)
Protocol: as §4, §5, §6

MV4;11 [11] = test: as above; format: cell-based, human; conditions: 48 hrs, read-out: Reduction in cell viability after treatment - EC50 (mean of triplicates)
Protocol: as §4, §5, §6

Jurkat [12] = test: as above; format: cell-based, human; conditions: 48 hrs, read-out: Reduction in cell viability after treatment - EC50 (mean of triplicates)
Protocol: as §4, §5, §6

Kasumi = test: as above; format: cell-based, human; conditions: 48 hrs, read-out: Reduction in cell viability after treatment - EC50 (mean of triplicates)
Protocol: as §4, §5, §6

RS4;11 [13] = test: as above; format: cell-based, human; conditions: 48 hrs, read-out: Reduction in cell viability after treatment - EC50 (mean of triplicates)
Protocol: as §4, §5, §6

Structure (SMILES): Nc1ccn([C@@H]2O[C@H](CO)[C@@H](O)[C@@H]2O)c(=O)n1 [Arabinosylcytosine]
- Tumor Volume at day 33 Mean ± Standard Error ([1]; 30 mg/kg IP administered every day for 14 days): 129 ± 11.2 mm^3

- EC50 (K562 [8]; Homo sapiens): 46 nM
- EC50 (MV4;11 [11]; Homo sapiens): 82 nM
- EC50 (Jurkat [12]; Homo sapiens): 46 nM
- EC50 (RS4;11 [13]; Homo sapiens): 5 nM
Structure (SMILES): O=C1NC(=O)C(c2cnc3ccccn23)=C1c1cn2c3c(cc(F)cc13)CN(C(=O)N1CCCCC1)CC2 [Compound 1, 7-(2,5-dihydro-4-imidazo[1,2-a]pyridine-3-yl-2,5-dioxo-1H-pyrrol-3-yl)-9-fluoro-1,2,3,4-tetrahydro-2-(1-piperidinyl-carbonyl)-pyrrolo[3,2,1-jk][1,4]benzodiazepine]
- % Increase in Caspase 3 after treatment with Cmpd 1 (mean of triplicates) (K562 [2]; 0.0007 μM Compound 1, 48 hrs): 1057%
- % Increase in Caspase 3 after treatment with Cmpd 1 (mean of triplicates) (REH [3]; 0.0007 μM Compound 1, 48 hrs): 132%
- % Increase in Caspase 3 after treatment with Cmpd 1 (mean of triplicates) (HEL 92.1.7 [4]; 0.120 μM Compound 1, 48 hrs): 284%
- % Increase in Caspase 3 after treatment with Cmpd 1 (mean of triplicates) (MV4;11 [5]; 0.010 μM Compound 1, 48 hrs): 188%
- % Increase in Caspase 3 after treatment with Cmpd 1 (mean of triplicates) (Jurkat [6]; 0.370 μM Compound 1, 48 hrs): 140%
- % Increase in Caspase 3 after treatment with Cmpd 1 (mean of triplicates) (Kasumi 1; 0.370 μM Compound 1, 48 hrs): 133%
- % Increase in Caspase 3 after treatment with Cmpd 1 (mean of triplicates) (RS4;11 [7]; 0.009 μM Compound 1, 48 hrs): 111%
- Tumor Volume at day 33 Mean ± Standard Error ([1]; 0.1 mg/kg IV administered twice a week, 6 cycles): 189 ± 22.3 mm^3
- Tumor Volume at day 33 Mean ± Standard Error ([1]; 1 mg/kg IV administered twice a week, 6 cycles): 154 ± 15 mm^3
- Tumor Volume at day 33 Mean ± Standard Error ([1]; 5 mg/kg IV administered once a week, three cycles): 167 ± 11.7 mm^3
- EC50 (REH [9]; Homo sapiens): 6 nM
- EC50 (HEL 92.1.7 [10]; Homo sapiens): 34 nM
- EC50 (Kasumi; Homo sapiens): 16 nM

Structure (SMILES): O=C1Nc2cc(Br)ccc2/C1=C1/Nc2ccccc2/C1=N\O [GSK3-IX, (2′Z,3′E)-6-bromoindirubin-3′-oxime]
- EC50 (K562 [8]): > 3300 nM
- EC50 (REH [9]): 1100 nM
- EC50 (HEL 92.1.7 [10]): > 3300 nM
- EC50 (MV4;11 [11]): 200 nM
- EC50 (Jurkat [12]): > 3300 nM
- EC50 (Kasumi): 1200 nM
- EC50 (RS4;11 [13]): 300 nM

- EC50 (K562 [8]; Homo sapiens): 20000 nM
- EC50 (MV4;11 [11]; Homo sapiens): 12600 nM
- EC50 (Jurkat [12]; Homo sapiens): > 10000 nM
- EC50 (RS4;11 [13]; Homo sapiens): 4400 nM
Structure (SMILES): Cn1cc(C2=C(c3ccc(Cl)cc3Cl)C(=O)NC2=O)c2ccccc21 [SB216763, 3-(2,4-dichlorophenyl)-4-(1-methyl-1H-indol-3-yl)-1H-pyrrole-2,5-dione]
- % Increase in Caspase 3 after treatment with SB216763 (mean of triplicates) (K562 [2]; 20 μM SB216763, 48 hrs): 223%
- % Increase in Caspase 3 after treatment with SB216763 (mean of triplicates) (REH [3]; 20 μM SB216763, 48 hrs): 113%
- % Increase in Caspase 3 after treatment with SB216763 (mean of triplicates) (HEL 92.1.7 [4]; 10 μM SB216763, 48 hrs): 250%
- % Increase in Caspase 3 after treatment with SB216763 (mean of triplicates) (MV4;11 [5]; 30 μM SB216763, 48 hrs): 83%
- % Increase in Caspase 3 after treatment with SB216763 (mean of triplicates) (Jurkat [6]; 10 μM SB216763, 48 hrs): 101%
- % Increase in Caspase 3 after treatment with SB216763 (mean of triplicates) (Kasumi 1; 10 μM SB216763, 48 hrs): 27%
- % Increase in Caspase 3 after treatment with SB216763 (mean of triplicates) (RS4;11 [7]; 20 μM SB216763, 48 hrs): 117%
- EC50 (REH [9]; Homo sapiens): 4200 nM
- EC50 (HEL 92.1.7 [10]; Homo sapiens): 11300 nM
- EC50 (Kasumi; Homo sapiens): 10000 nM
